# From the supplement of paper PMC8882468
# ± gives the standard deviation of the averaged measurements.
# System: HCI-017.E2 (organoid from an ER-positive breast cancer xenograft)
# Assay: CTG-3D luminescence at 96 h relative to day-0 seeding control (ratio to day 0); higher = more growth / less cytotoxicity; PDxO 3D drug screen, 96 h, CTG-3D normalised to day-0 seeding control.
# Details: 12.5 pM
row,SMILES,CTG-3D luminescence at 96 h
1,COc1cc2c(Oc3ccc4[nH]c(C)cc4c3F)ncnc2cc1OCCCN1CCCC1 [cediranib],1.74 ± 0.048
2,CC(C)n1nc(-c2ccc3oc(N)nc3c2)c2c(N)ncnc21 [sapanisertib],1.69 ± 0.028
3,Cc1cc(Nc2ncnc3ccc(NC4=NC(C)(C)CO4)cc23)ccc1Oc1ccn2ncnc2c1 [tucatinib],1.74 ± 0.082
4,C[C@H](NC(=O)CCC(F)(F)F)C(=O)N[C@@H]1C(=O)N(CCO)c2ncccc2-c2ccccc21 [crenigacestat],1.98 ± 0.17
5,C[C@]12CC[C@@H]3c4ccc(O)cc4C[C@@H](CCCCCCCCC[S+]([O-])CCCC(F)(F)C(F)(F)F)[C@H]3[C@@H]1CC[C@@H]2O (some centres not stated) [fulvestrant],1.94 ± 0.14
6,O=C(c1ccc(F)c(F)c1Nc1ccc(I)cc1F)N1CC(O)([C@@H]2CCCCN2)C1 [cobimetinib],1.77 ± 0.36
7,O=C(/C=C/c1cccnc1)NCCCCC1CCN(C(=O)c2ccccc2)CC1 [FK866],1.61 ± 0.73
8,CS(=O)(=O)c1ccc(C(=O)Nc2ccc(Cl)c(-c3ccccn3)c2)c(Cl)c1 [vismodegib],1.53 ± 0.18
9,C=CCn1c(=O)c2cnc(Nc3ccc(N4CCN(C)CC4)cc3)nc2n1-c1cccc(C(C)(C)O)n1 [adavosertib],1.84 ± 0.1

# Same assay, conditions: 12.5 pM; days in culture: 85
row,SMILES,CTG-3D luminescence at 96 h
1,COc1cc2c(Oc3ccc4[nH]c(C)cc4c3F)ncnc2cc1OCCCN1CCCC1 [cediranib],2.93
2,CC(C)n1nc(-c2ccc3oc(N)nc3c2)c2c(N)ncnc21 [sapanisertib],2.96
3,Cc1cc(Nc2ncnc3ccc(NC4=NC(C)(C)CO4)cc23)ccc1Oc1ccn2ncnc2c1 [tucatinib],2.39
4,C[C@H](NC(=O)CCC(F)(F)F)C(=O)N[C@@H]1C(=O)N(CCO)c2ncccc2-c2ccccc21 [crenigacestat],2.43
5,C[C@]12CC[C@@H]3c4ccc(O)cc4C[C@@H](CCCCCCCCC[S+]([O-])CCCC(F)(F)C(F)(F)F)[C@H]3[C@@H]1CC[C@@H]2O (some centres not stated) [fulvestrant],2.84
6,O=C(c1ccc(F)c(F)c1Nc1ccc(I)cc1F)N1CC(O)([C@@H]2CCCCN2)C1 [cobimetinib],3.27
7,O=C(/C=C/c1cccnc1)NCCCCC1CCN(C(=O)c2ccccc2)CC1 [FK866],2.98
8,CS(=O)(=O)c1ccc(C(=O)Nc2ccc(Cl)c(-c3ccccn3)c2)c(Cl)c1 [vismodegib],2.49
9,C=CCn1c(=O)c2cnc(Nc3ccc(N4CCN(C)CC4)cc3)nc2n1-c1cccc(C(C)(C)O)n1 [adavosertib],3.02

# Same assay, conditions: 0.00025 µM
row,SMILES,CTG-3D luminescence at 96 h
1,COc1cc2c(Oc3ccc4[nH]c(C)cc4c3F)ncnc2cc1OCCCN1CCCC1 [cediranib],2.27 ± 0.082
2,CC(C)n1nc(-c2ccc3oc(N)nc3c2)c2c(N)ncnc21 [sapanisertib],2.18 ± 0.25
3,Cc1cc(Nc2ncnc3ccc(NC4=NC(C)(C)CO4)cc23)ccc1Oc1ccn2ncnc2c1 [tucatinib],1.98 ± 0.36
4,C[C@H](NC(=O)CCC(F)(F)F)C(=O)N[C@@H]1C(=O)N(CCO)c2ncccc2-c2ccccc21 [crenigacestat],2.37 ± 0.17
5,C[C@]12CC[C@@H]3c4ccc(O)cc4C[C@@H](CCCCCCCCC[S+]([O-])CCCC(F)(F)C(F)(F)F)[C@H]3[C@@H]1CC[C@@H]2O (some centres not stated) [fulvestrant],2.16 ± 0.11
6,O=C(c1ccc(F)c(F)c1Nc1ccc(I)cc1F)N1CC(O)([C@@H]2CCCCN2)C1 [cobimetinib],2.11 ± 0.29
7,O=C(/C=C/c1cccnc1)NCCCCC1CCN(C(=O)c2ccccc2)CC1 [FK866],1.98 ± 0.36
8,CS(=O)(=O)c1ccc(C(=O)Nc2ccc(Cl)c(-c3ccccn3)c2)c(Cl)c1 [vismodegib],1.93 ± 0.17
9,C=CCn1c(=O)c2cnc(Nc3ccc(N4CCN(C)CC4)cc3)nc2n1-c1cccc(C(C)(C)O)n1 [adavosertib],2.24 ± 0.056

# Same assay, conditions: 0.00025 µM; days in culture: 85
row,SMILES,CTG-3D luminescence at 96 h
1,COc1cc2c(Oc3ccc4[nH]c(C)cc4c3F)ncnc2cc1OCCCN1CCCC1 [cediranib],3.39
2,CC(C)n1nc(-c2ccc3oc(N)nc3c2)c2c(N)ncnc21 [sapanisertib],2.53
3,Cc1cc(Nc2ncnc3ccc(NC4=NC(C)(C)CO4)cc23)ccc1Oc1ccn2ncnc2c1 [tucatinib],3.33
4,C[C@H](NC(=O)CCC(F)(F)F)C(=O)N[C@@H]1C(=O)N(CCO)c2ncccc2-c2ccccc21 [crenigacestat],2.96
5,C[C@]12CC[C@@H]3c4ccc(O)cc4C[C@@H](CCCCCCCCC[S+]([O-])CCCC(F)(F)C(F)(F)F)[C@H]3[C@@H]1CC[C@@H]2O (some centres not stated) [fulvestrant],3.05
6,O=C(c1ccc(F)c(F)c1Nc1ccc(I)cc1F)N1CC(O)([C@@H]2CCCCN2)C1 [cobimetinib],2.34
7,O=C(/C=C/c1cccnc1)NCCCCC1CCN(C(=O)c2ccccc2)CC1 [FK866],3.2
8,CS(=O)(=O)c1ccc(C(=O)Nc2ccc(Cl)c(-c3ccccn3)c2)c(Cl)c1 [vismodegib],2.32
9,C=CCn1c(=O)c2cnc(Nc3ccc(N4CCN(C)CC4)cc3)nc2n1-c1cccc(C(C)(C)O)n1 [adavosertib],3.07

# Same assay, conditions: 0.005 µM
row,SMILES,CTG-3D luminescence at 96 h
1,COc1cc2c(Oc3ccc4[nH]c(C)cc4c3F)ncnc2cc1OCCCN1CCCC1 [cediranib],2.12 ± 0.093
2,CC(C)n1nc(-c2ccc3oc(N)nc3c2)c2c(N)ncnc21 [sapanisertib],1.703 ± 0.0064
3,Cc1cc(Nc2ncnc3ccc(NC4=NC(C)(C)CO4)cc23)ccc1Oc1ccn2ncnc2c1 [tucatinib],2.09 ± 0.45
4,C[C@H](NC(=O)CCC(F)(F)F)C(=O)N[C@@H]1C(=O)N(CCO)c2ncccc2-c2ccccc21 [crenigacestat],2.22 ± 0.31
5,C[C@]12CC[C@@H]3c4ccc(O)cc4C[C@@H](CCCCCCCCC[S+]([O-])CCCC(F)(F)C(F)(F)F)[C@H]3[C@@H]1CC[C@@H]2O (some centres not stated) [fulvestrant],2.05 ± 0.34
6,O=C(c1ccc(F)c(F)c1Nc1ccc(I)cc1F)N1CC(O)([C@@H]2CCCCN2)C1 [cobimetinib],2.18 ± 0.27
7,O=C(/C=C/c1cccnc1)NCCCCC1CCN(C(=O)c2ccccc2)CC1 [FK866],0.93 ± 0.32
8,CS(=O)(=O)c1ccc(C(=O)Nc2ccc(Cl)c(-c3ccccn3)c2)c(Cl)c1 [vismodegib],2.01 ± 0.074
9,C=CCn1c(=O)c2cnc(Nc3ccc(N4CCN(C)CC4)cc3)nc2n1-c1cccc(C(C)(C)O)n1 [adavosertib],2.2 ± 0.46

# Same assay, conditions: 0.005 µM; days in culture: 85
row,SMILES,CTG-3D luminescence at 96 h
1,COc1cc2c(Oc3ccc4[nH]c(C)cc4c3F)ncnc2cc1OCCCN1CCCC1 [cediranib],2.44
2,CC(C)n1nc(-c2ccc3oc(N)nc3c2)c2c(N)ncnc21 [sapanisertib],2.39
3,Cc1cc(Nc2ncnc3ccc(NC4=NC(C)(C)CO4)cc23)ccc1Oc1ccn2ncnc2c1 [tucatinib],2.72
4,C[C@H](NC(=O)CCC(F)(F)F)C(=O)N[C@@H]1C(=O)N(CCO)c2ncccc2-c2ccccc21 [crenigacestat],2.49
5,C[C@]12CC[C@@H]3c4ccc(O)cc4C[C@@H](CCCCCCCCC[S+]([O-])CCCC(F)(F)C(F)(F)F)[C@H]3[C@@H]1CC[C@@H]2O (some centres not stated) [fulvestrant],2.96
6,O=C(c1ccc(F)c(F)c1Nc1ccc(I)cc1F)N1CC(O)([C@@H]2CCCCN2)C1 [cobimetinib],2.34
7,O=C(/C=C/c1cccnc1)NCCCCC1CCN(C(=O)c2ccccc2)CC1 [FK866],2.28
8,CS(=O)(=O)c1ccc(C(=O)Nc2ccc(Cl)c(-c3ccccn3)c2)c(Cl)c1 [vismodegib],2.96
9,C=CCn1c(=O)c2cnc(Nc3ccc(N4CCN(C)CC4)cc3)nc2n1-c1cccc(C(C)(C)O)n1 [adavosertib],2.89

# Same assay, conditions: 0.1 µM
row,SMILES,CTG-3D luminescence at 96 h
1,COc1cc2c(Oc3ccc4[nH]c(C)cc4c3F)ncnc2cc1OCCCN1CCCC1 [cediranib],2.09 ± 0.069
2,CC(C)n1nc(-c2ccc3oc(N)nc3c2)c2c(N)ncnc21 [sapanisertib],0.694 ± 0.06
3,Cc1cc(Nc2ncnc3ccc(NC4=NC(C)(C)CO4)cc23)ccc1Oc1ccn2ncnc2c1 [tucatinib],1.95 ± 0.13
4,C[C@H](NC(=O)CCC(F)(F)F)C(=O)N[C@@H]1C(=O)N(CCO)c2ncccc2-c2ccccc21 [crenigacestat],1.95 ± 0.11
5,C[C@]12CC[C@@H]3c4ccc(O)cc4C[C@@H](CCCCCCCCC[S+]([O-])CCCC(F)(F)C(F)(F)F)[C@H]3[C@@H]1CC[C@@H]2O (some centres not stated) [fulvestrant],1.92 ± 0.26
6,O=C(c1ccc(F)c(F)c1Nc1ccc(I)cc1F)N1CC(O)([C@@H]2CCCCN2)C1 [cobimetinib],1.89 ± 0.2
7,O=C(/C=C/c1cccnc1)NCCCCC1CCN(C(=O)c2ccccc2)CC1 [FK866],0.759 ± 0.65
8,CS(=O)(=O)c1ccc(C(=O)Nc2ccc(Cl)c(-c3ccccn3)c2)c(Cl)c1 [vismodegib],1.8 ± 0.28
9,C=CCn1c(=O)c2cnc(Nc3ccc(N4CCN(C)CC4)cc3)nc2n1-c1cccc(C(C)(C)O)n1 [adavosertib],2.13 ± 0.035

# Same assay, conditions: 0.1 µM; days in culture: 85
row,SMILES,CTG-3D luminescence at 96 h
1,COc1cc2c(Oc3ccc4[nH]c(C)cc4c3F)ncnc2cc1OCCCN1CCCC1 [cediranib],2.78
2,CC(C)n1nc(-c2ccc3oc(N)nc3c2)c2c(N)ncnc21 [sapanisertib],0.979
3,Cc1cc(Nc2ncnc3ccc(NC4=NC(C)(C)CO4)cc23)ccc1Oc1ccn2ncnc2c1 [tucatinib],2.78
4,C[C@H](NC(=O)CCC(F)(F)F)C(=O)N[C@@H]1C(=O)N(CCO)c2ncccc2-c2ccccc21 [crenigacestat],2.05
5,C[C@]12CC[C@@H]3c4ccc(O)cc4C[C@@H](CCCCCCCCC[S+]([O-])CCCC(F)(F)C(F)(F)F)[C@H]3[C@@H]1CC[C@@H]2O (some centres not stated) [fulvestrant],2.18
6,O=C(c1ccc(F)c(F)c1Nc1ccc(I)cc1F)N1CC(O)([C@@H]2CCCCN2)C1 [cobimetinib],2.15
7,O=C(/C=C/c1cccnc1)NCCCCC1CCN(C(=O)c2ccccc2)CC1 [FK866],0.984
8,CS(=O)(=O)c1ccc(C(=O)Nc2ccc(Cl)c(-c3ccccn3)c2)c(Cl)c1 [vismodegib],2.5
9,C=CCn1c(=O)c2cnc(Nc3ccc(N4CCN(C)CC4)cc3)nc2n1-c1cccc(C(C)(C)O)n1 [adavosertib],2.57
